Values of other authors as cited in US20230399688A1, “COMPOSITIONS AND M[…] FOR COUPLED CELL-FREE TRANSCRIPTION-T[…] PROTEIN SYNTHESIS AND METHODS FOR USING THEM” (GENOMATICA, INC., priority 2015, published 2023).

Tested on: human cancer cell lines
Settings: in comparison to the parent drug, MTM

In the case of `CO[C@@H]([C@@H]1Cc2cc3cc(O[C@H]4C[C@@H](O[C@H]5C[C@@H](O)[C@H](O)[C@@H](C)O5)[C@H](O)[C@@H](C)O4)c(C)c(O)c3c(O)c2C(=O)[C@H]1O[C@H]1C[C@@H](O[C@H]2C[C@@H](O[C@H]3C[C@](C)(O)[C@H](O)[C@@H](C)O3)[C@@H](O)[C@@H](C)O2)[C@H](O)[C@@H](C)O1)[C@@H](O)C(C)=O` [MTM-SK, mithramycin SK], the therapeutic index is given as “improved therapeutic index”.
